Results published in ChEMBL document CHEMBL1201862, “PubChem BioAssay data set” (2004).
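1) Cells in 96-well plates. 2) Compound, 48 h, 5 concentrations. 3) Linear interpolation between surrounding doses. 4) Unreached endpoint = highest concentration. At the GI50, growth is halved.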 The source made the active and inactive calls. Cut-off read from the data, not from the text of the source: active = GI50 up to about 1.1 µM and inactive = higher.

Experiments:
Assay in all cases: NCI anticancer screen, dose series, 48 h
[1] = test system: HCT-15
[2] = test system: OVCAR-5
[3] = test system: NCI-H23
[4] = test system: CCRF-CEM
[5] = test system: SK-MEL-2
[6] = test system: SF-268
[7] = test system: K562
[8] = test system: Malme-3M
[9] = test system: PC-3
[10] = test system: HCT-116
[11] = test system: SW-620
[12] = test system: SR
[13] = test system: T47D
[14] = test system: RPMI-8226
[15] = test system: HOP-62
[16] = test system: MDA-N
[17] = test system: SK-MEL-28
[18] = test system: Hs-578T
[19] = test system: SN12C
[20] = test system: MDA-MB-231

Row | SMILES | GI50 [1] | GI50 [2] | GI50 [3] | GI50 [4] | GI50 [5] | GI50 [6] | GI50 [7] | GI50 [8] | GI50 [9] | GI50 [10] | GI50 [11] | GI50 [12] | GI50 [13] | GI50 [14] | GI50 [15] | GI50 [16] | GI50 [17] | GI50 [18] | GI50 [19] | GI50 [20]
1 | COc1cc(/C=C\C(=O)O)ccc1OCc1ccccc1 | > 100 µM | > 100 µM (inactive) | > 100 µM (inactive) | > 100 µM (inactive) | > 100 µM (inactive) | > 100 µM (inactive) | > 100 µM (inactive) | 0.053 µM (active) | > 100 µM (inactive) | > 100 µM (inactive) | > 100 µM (inactive) | > 100 µM (inactive) | > 100 µM (inactive) | > 100 µM (inactive) | > 100 µM (inactive) | > 100 µM (inactive) | > 100 µM (inactive) | 49.3 µM (inactive) | > 100 µM (inactive) | > 100 µM (inactive)
2 | COc1c2c(cc3c1C(O)N1CC[C@]34[C@H]3O[C@H]3[C@H](OC)C[C@@H]14)OCO2 (stereo not given in full) | 67.3 µM | > 100 µM (inactive) | > 100 µM (inactive) | 2.38 µM (inactive) | 26.4 µM (inactive) | > 100 µM (inactive) | 48 µM (inactive) | 71.1 µM (inactive) | 39.3 µM (inactive) | 75 µM (inactive) | 54.7 µM (inactive) | 21.9 µM (inactive) | > 100 µM (inactive) | 82 µM (inactive) | 35.8 µM (inactive) | 25.3 µM (inactive) | > 100 µM (inactive) | > 100 µM (inactive) | > 100 µM (inactive) | > 100 µM (inactive)
3 | CC(=O)c1c2c(cc3c1CC1(Cc4cc5c(cc4C1=O)CCC5)C3)CCC2 (stereo not given) | 63 µM | > 100 µM (inactive) | 30.9 µM (inactive) | 14.6 µM (inactive) | 79.8 µM (inactive) | > 81.5 µM (inactive) | 14 µM (inactive) | 39.1 µM (inactive) | 13.1 µM (inactive) | 9.12 µM (inactive) | 85.5 µM (inactive) | 6.64 µM (inactive) | 8.91 µM (inactive) | 10.5 µM (inactive) | > 100 µM (inactive) | > 87.1 µM (inactive) | > 100 µM (inactive) | > 100 µM (inactive) | > 61.4 µM (inactive) | 40.2 µM (inactive)
4 | c1ccc(-c2c(-c3[nH]c4ccccc4c3-c3ccccc3)[nH]c3ccccc23)cc1 | 4.32 µM | 11.1 µM (inactive) | 2.63 µM (inactive) | 3.4 µM (inactive) | 8.45 µM (inactive) | 6.47 µM (inactive) | 4.03 µM (inactive) | 13.7 µM (inactive) | 3.6 µM (inactive) | 4.06 µM (inactive) | 3.34 µM (inactive) | 2.74 µM (inactive) | 2.53 µM (inactive) | 2.94 µM (inactive) | 2.55 µM (inactive) | 2.74 µM (inactive) | 11.4 µM (inactive) | 9.38 µM (inactive) | 1.91 µM (inactive) | 3.4 µM (inactive)
5 | O=c1c(Sc2ncccn2)c(Sc2ncccn2)cnn1CCl | 3.02 µM | 7.21 µM (inactive) | 4.67 µM (inactive) | 0.295 µM (active) | 2.22 µM (inactive) | 2.99 µM (inactive) | 3.39 µM (inactive) | 2.05 µM (inactive) | 2.48 µM (inactive) | 1.85 µM (inactive) | 2.4 µM (inactive) | 2.79 µM (inactive) | 3.23 µM (inactive) | 1.67 µM (inactive) | 1.49 µM (inactive) | 2.17 µM (inactive) | 3.41 µM (inactive) | 14.5 µM (inactive) | 3.79 µM (inactive) | 6.98 µM (inactive)
6 | CCN(CC)CCO/N=C1\CC[C@H]2[C@@H]3CCc4cc(OC)ccc4[C@H]3CC[C@]12C | 0.489 µM | 3.17 µM (inactive) | 5.09 µM (inactive) | 1.22 µM (inactive) | 2.3 µM (inactive) | 2.07 µM (inactive) | 0.685 µM (active) | 1.82 µM (inactive) | 2.64 µM (inactive) | 1.44 µM (inactive) | 1.72 µM (inactive) | 1.49 µM (inactive) | 2.79 µM (inactive) | 1.67 µM (inactive) | 1.77 µM (inactive) | 1.75 µM (inactive) | 0.628 µM (active) | 2.31 µM (inactive) | 3.03 µM (inactive) | 3.37 µM (inactive)
